# Key:
# CFI female mice [1] = assay: Antilipogenic evaluation of test compounds - mouse study (fat pad and body weight, 12-day feeding); assay type: in vivo; settings: 12 days
# Description: CFI female mice from Carworth Farms are received when they are six-weeks old. They are housed ten to a cage in air-conditioned rooms (22° C. to 25° C.) with automatically-controlled lights, 14 hours on and ten hours off. The basal diet used in these studies is Purina Laboratory Chow (see description below) which is supplied ad libitum. The following is a description of the diet to which the growth-promoting compounds were added. Meat and bone meal, dried skimmed milk, wheat germ meal, fish meal, animal liver meal, dried beet pulp, ground extruded corn, ground oat groats, soybean meal, dehydrated alfalfa metal, cane molasses, animal fat preserved with BHA, vitamin B12 supplement, calcium pantothenate, choline chloride, folic acid, riboflavin supplement, brewer's dried yeast, thiamin, niacin, vitamin A supplement, D-activated plant sterol, vitamin E supplement, calcium carbonate, dicalcium phosphate, iodized salt, ferric ammonium citrate, iron oxide, manganous oxide, cobalt carbonate, copper oxide, zinc oxide. Water is also allowed ad libitum. Thirteen days after arrival, the mice are weighed in groups of ten and assigned at random to the different treatments. Each of the treatments is tested in three replicates, i.e., in three cages of ten mice each. There are ten cages of ten control mice each. Drugs are mixed in the diet at the dosage level indicated. Feed and water are offered ad libitum for a 12-day test period. Feed spilled is collected during the test period. At the end of the test period, the collected feed is weighed, and the mean feed consumption per cage of ten mice is determined for each treatment. The mice are weighed as a group of ten, and the weight gain determined. The mice are sacrificed by cervical dislocation. The right uterine fat pad of each mouse is removed. The fat pads for each cage of ten mice are weighed as a unit. Reduction in fat pad weights of animals is generally indicative of a reduction of total body fat of the treated animals.
# CFI female mice [2] = assay: Antilipogenic evaluation of test compounds - mouse study (Example 6, procedure of Example 4); assay type: in vivo
# Description: CFI female mice from Carworth Farms are received when they are six-weeks old. They are housed ten to a cage in air-conditioned rooms (22° C. to 25° C.) with automatically-controlled lights, 14 hours on and ten hours off. The basal diet used in these studies is Purina Laboratory Chow (see description below) which is supplied ad libitum.
# Thirteen days after arrival, the mice are weighed in groups of ten and assigned at random to the different treatments. Each of the treatments is tested in three replicates, i.e., in three cages of ten mice each. There are ten cages of ten control mice each. Drugs are mixed in the diet at the dosage level indicated. Feed and water are offered ad libitum for a 12-day test period. Feed spilled is collected during the test period. At the end of the test period, the collected feed is weighed, and the mean feed consumption per cage of ten mice is determined for each treatment. The mice are weighed as a group of ten, and the weight gain determined. The mice are sacrificed by cervical dislocation. The right uterine fat pad of each mouse is removed. The fat pads for each cage of ten mice are weighed as a unit. Reduction in fat pad weights of animals is generally indicative of a reduction of total body fat of the treated animals.
# Following the procedure of Example 4, the analogues of the compounds of the invention in the subject Application are evaluated as antilipogenic agents.
SMILES,% Change in Body Weight vs controls (CFI female mice [1]; 50 ppm in diet),% Reduction in Fat Pad Weight vs Controls (CFI female mice [1]; 50 ppm in diet),% Change in Body Weight vs controls (CFI female mice [1]; 100 ppm in diet),% Reduction in Fat Pad Weight vs Controls (CFI female mice [1]; 100 ppm in diet) [%],% Change in Body Weight vs controls (CFI female mice [1]; 200 ppm in diet),% Reduction in Fat Pad Weight vs Controls (CFI female mice [1]; 200 ppm in diet) [%],"% Change in Body Weight vs controls (CFI female mice [1]; second dose, not given) [%]","% Reduction in Fat Pad Weight vs Controls (CFI female mice [1]; second dose, not given) [%]",Mouse Test Fat Pad Weight % ± Control (CFI female mice [2]; 100 ppm) [%],Mouse Test Fat Pad Weight % ± Control (CFI female mice [2]; 200 ppm) [%]
CCCC(C)NCC(O)c1cc(F)cc(C#N)c1 (stereo not drawn) [drawing 15],+15.9%,-5.6%,+1.2%,-15.5,+22.4%,-22.8,–,–,–,–
CCNCC(O)c1cc(F)cc(C#N)c1 (stereo not drawn) [drawing 16],+18.8%,+4.3%,-4.1%,-33.3,+25.3%,-37.9,–,–,–,–
CC(C)N(CC(O)c1cc(F)cc(C#N)c1)C(C)C (stereo not drawn) [drawing 17],–,–,–,–,+19.05%,-19.36,-2.38,-15.39,–,–
CC(C)(C)NCC(O)c1cc(F)cc(C#N)c1 (stereo not drawn) [drawing 24],–,–,–,–,–,–,–,–,-38.4,-42.9
